# Source: patent publication US20040092485A1, “Ascorbic acid 2-phosphate metal salt with low calcium content” (priority 2001, published 2004)
# Structures can show the parent of a compound that is named as a salt.
# What was measured:
# [1] = In-solution Stability Test 2 (clouding by eye in citrate/citric acid, glycerol·1,3-butylene glycol·ethanol, water solution); format: physicochemical; parameters: key to In-solution Stability Test 2 Room Temperature (20° C.) / In-solution Stability Test 2 50° C.: A: No clouding; B: Clouded; Distinguished Clouding; conditions: for In-solution Stability Test 2 50° C.: left standing at 50° C. for 10 days; for In-solution Stability Test 2 50° C. / In-solution Stability Test 2 Room Temperature (20° C.): 2 g sample, 15 g mixed solution, clouding state observed by eye; for In-solution Stability Test 2 Room Temperature (20° C.): left standing at room temperature (20° C.) for 1 month
# Protocol: In-solution Stability Test 2
# (§1) Into a 200 ml-volume Erlenmeyer flask, 2 g of a sample (APM), 0.4 g of sodium citrate dihydrate and 0.05 g of citric acid were charged. Thereto, 15 g of glycerol·1,3-butylene glycol·ethanol mixed solution (volume ratio: 3:5:8) was charged and the resulting solution was stirred for 30 minutes. Thereto, 82 g of pure water was added and further stirred for 2 hours. After filtering this solution through a filter, a half amount was left standing at room temperature (20° C.) for 1 month and the remaining half amount was left standing at 50° C. for 10 days.
# [2] = In-solution Stability Test 1 (clouding by eye in citrate/citric acid, glycerol·1,3-butylene glycol·ethanol, water solution); format: physicochemical; parameters: key to In-solution Stability Test 1 Room Temperature (20° C.) / In-solution Stability Test 1 50° C.: A: No clouding; B: Clouded; Distinguished Clouding; conditions: for In-solution Stability Test 1 50° C.: left standing at 50° C. for 10 days; for In-solution Stability Test 1 50° C. / In-solution Stability Test 1 Room Temperature (20° C.): 2 g sample, 16 g mixed solution, clouding state observed by eye; for In-solution Stability Test 1 Room Temperature (20° C.): left standing at room temperature (20° C.) for 1 month
# Protocol: In-solution Stability Test 1
# as §1, with “charged. Thereto, 16 g of” for “charged. Thereto, 15 g of”, “3:5:8) was added and the” for “3:5:8) was charged and the”, “added and the resulting solution was further stirred” for “added and further stirred”
# [3] = temperature not specified in the sentence (whole test)
SMILES,clouding in in-solution stability test 2 ([1]; 50° C.),In-solution Stability Test 2 50° C. [1],In-solution Stability Test 2 Room Temperature (20° C.) [1],clouding in in-solution stability test 2 ([1]; room temperature (20° C.)),clouding in in-solution stability test 1 ([2]; 50° C.),In-solution Stability Test 1 50° C. [2],In-solution Stability Test 1 Room Temperature (20° C.) [2],clouding in in-solution stability test 1 ([2]; room temperature (20° C.)),"clouding in in-solution stability test 2 [1, 3]","clouding in in-solution stability test 1 [2, 3]"
"O=C1O[C@H]([C@@H](O)CO)C(O)=C1OP(=O)([O-])[O-].[Mg+2] [Comparative Example 1, L-ascorbic acid 2-phosphate magnesium salt]",more distinguished clouding was observed,C,B,clouding was observed,more distinguished clouding was observed,C,B,clouding was observed,,
"O=C1O[C@H]([C@@H](O)CO)C(O)=C1OP(=O)([O-])[O-].[Mg+2] [Comparative Example 2, L-ascorbic acid 2-phosphate magnesium salt]",distinguished clouding was observed,C,C,distinguished clouding was observed,more distinguished clouding was observed,C,B,clouding was observed,,
"O=C1O[C@H]([C@@H](O)CO)C(O)=C1OP(=O)(O)O [Example 1, L-ascorbic acid 2-phosphate magnesium salt]",,A,A,,,A,A,,clouding was not observed,clouding was not observed
